Results published in patent publication US11945826B2, “Hydroxypyridoxazepines as NRF2 activators” (GLAXOSMITHKLINE INTELLECTUAL PROPERTY DEVELOPMENT LIMITED, priority 2019, dated 2024).

How the values were obtained:
murine TAC model = experiment: Mouse Transverse Aortic Constriction (TAC) Left Ventricular Pressure Overload Model; assay type: in vivo, C57BLK/6J mice; settings: 10-week mouse TAC, Example 1 at 1, 3, 10 mg/kg/d, Example B at 100 mg/kg/d
Description: Male C57BLK/6J mice (10-12 weeks old) were individually housed and acclimated to a standard powdered rodent diet for 1-3 days. Water was offered ad libitum throughout the study. Mice were initially anesthetized in a chamber using an 3% isoflurane with oxygen (1.0 L/min), and then maintained at 1.5% via nose cone (without intubation). A small incision (˜5 mm) was made just left of midline and just above the rib cage at the level of the suprasternal notch. The muscle tissue was retracted to expose the area above the pleural cavity. The lobes of the thymus were separated and retracted to expose the aortic arch. Fine surgical forceps with blunted tips were used to expose a region above and below the aorta. A micro blunt hook tied with 7-0 silk surgical suture was looped under the aorta and the suture pulled through. The suture was tied-off against a small piece of blunted 27 G needle and the needle was then removed creating the aortic constriction (a 60-70% constriction of the lumen). The incision was closed using 6-0 silk suture for the muscle layer, then the skin with Medbond. The sham procedure was identical without ligation of aorta. Depending on the individual study designs, drug administration began either on the day of surgery, or 1-2 weeks after surgery (detailed in figure legends) and continued until the end of study. Compounds were administered in the mouse chow unless otherwise noted in FIG. 12 legends. TAC study duration was either 6 weeks or 10 weeks in duration. All TAC study endpoints were collected at the end of study. Following heart dissections, samples were either snap frozen in liquid nitrogen and stored at −80° C. or placed in 10% neutral buffered formalin until analysis.
Echocardiography: For mouse TAC studies, echocardiography was performed on a Vevo 2100 high frequency imaging system. Animals were anesthetized with 2-3% isoflurane and sedation maintained with 1% isoflurane with animals on a heating pad. B-mode imaging of three cardiac cycles was used to assess ejection fraction (EF), end diastolic volume (EDV), end systolic volume (ESV), LV mass, and heart rate. ECG was used to measure heart rate during the echocardiography procedure.
NADPH dehydrogenase [quinone]-1 (NQO1) activity: Left ventricular (LV) tissue NQO1 activity was determined using an NQO1 assay kit per manufacturer's protocol (Abcam, Cambridge MA)
The KEAP1 blockers/Nrf2 activators, (R)-3-(1,4-dimethyl-1H-benzo[d][1,2,3]triazol-5-yl)-3-(3-(((R)-2-ethyl-7-hydroxy-2,3-dihydropyrido[2,3-f][1,4]oxazepin-4(5H)-yl)methyl)-4-methylphenyl)propanoic acid, hydrochloride, or a tautomer thereof (Example 1) (in dose-response) and (S)-3-(1,4-dimethyl-1H-benzo[d][1,2,3]triazol-5-yl)-3-(3-(((R)-2-ethyl-2,3-dihydropyrido[3,4-f][1,4]oxazepin-4(5H)-yl)methyl)-4-methylphenyl)-2,2-dimethylpropanoic acid (Example B) were evaluated in a 10-week mouse TAC model of severe hemodynamic stress.
FIG. 12 depicts the effect of the KEAP1-kelch domain blockers/Nrf2 activators (R)-3-(1,4-dimethyl-1H-benzo[d][1,2,3]triazol-5-yl)-3-(3-(((R)-2-ethyl-7-hydroxy-2,3-dihydropyrido[2,3-f][1,4]oxazepin-4(5H)-yl)methyl)-4-methylphenyl)propanoic acid, hydrochloride, or a tautomer thereof (Compound of Example 1) and (S)-3-(1,4-dimethyl-1H-benzo[d][1,2,3]triazol-5-yl)-3-(3-(((R)-2-ethyl-2,3-dihydropyrido[3,4-f][1,4]oxazepin-4(5H)-yl)methyl)-4-methylphenyl)-2,2-dimethylpropanoic acid (Compound B) on cardiac function, remodeling, and NQO1 enzyme activity in the murine 10-week TAC model. All compounds were dosed in chow beginning 2-weeks after TAC. […]

[1] = tested on: Nrf2 (NQO1 activity in BEAS-2B cells); experiment: BEAS-2B NQO1 MTT Assay; assay type: cell-based; settings: Homo sapiens, 48 hours, NQO1 specific activity induction, read-out: EC50
Description: NAD(P)H:quinone oxidoreductase 1 (NQO1), also called DT diaphorase, is a homodimeric FAD-containing enzyme that catalyzes obligatory NAD(P)H-dependent two-electron reductions of quinones and protects cells against the toxic and neoplastic effects of free radicals and reactive oxygen species arising from one-electron reductions. The transcription of NQO1 is finely regulated by Nrf2, and thus NQO1 activity is a good marker for Nrf2 activation. On day one, frozen BEAS-2B cells (ATCC) were thawed in a water bath, counted, and re-suspended at a concentration of 250,000 cells/mL. Fifty microliters of cells were plated in 384 well black clear-bottomed plates. Plates were incubated at 37° C., 5% CO2 overnight. On day two, plates were centrifuged and 50 nL of compound or controls were added to the cells. Plates were then incubated at 37° C., 5% CO2 for 48 hours. On day four, medium was aspirated from the plate and crude cell lysates were made by adding 13 μL of 1× Cell Signalling Technologies lysis buffer with 1 Complete, Mini, EDTA-free Protease Inhibitor Tablet (Roche) for each 10 mL of lysis buffer. After lysis plates were incubated for 20 minutes at room temperature. Two microliters of lysate were removed for use in Cell Titer Glo assay (Promega) and MTT cocktail was prepared (Prochaska et. al. 1998) for measurement of NQO1 activity. Fifty microliters of MTT cocktail was added to each well, plate was centrifuged, and analyzed on an Envision plate reader (Perkin Elmer) using Absorbance 570 nm label for 30 minutes. Product formation was measured kinetically and the pEC50 of NQO1 specific activity induction was calculated by plotting the change in absorbance (Delta OD/min) versus the log of compound concentration followed by 3-parameter fitting.
EC50s<1 nM (+++++), EC50s 1 nM-10 nM (++++), EC50s 10 nM-100 nM (+++), EC50s 100 nM-1 μM (++), EC50s 1 μM-10 μM (+).

SMILES	EC50 [1]	further results
CC[C@@H]1CN(Cc2cc([C@@H](c3ccc4c(nnn4C)c3C)C(C)(C)C(=O)O)ccc2C)Cc2cnccc2O1 [Example B, (S)-3-(1,4-dimethyl-1H-benzo[d][1,2,3]triazol-5-yl)-3-(3-(((R)-2-ethyl-2,3-dihydropyrido[3,4-f][1,4]oxazepin-4(5H)-yl)methyl)-4-methylphenyl)-2,2-dimethylpropanoic acid, reference compound]	–	cardiac function as assessed by ejection fraction (murine TAC model; daily in chow for eight weeks from 2 weeks after TAC): full normalization of cardiac function; NAD(P)H quinone oxidoreductase 1 (NQO1) in the LV (murine TAC model; daily in chow for eight weeks): significant dose-related elevations; cardiac hypertrophy (left ventricular mass) (murine TAC model; daily in chow for eight weeks): did not influence cardiac hypertrophy; unloading the heart (blood pressure) or heart rate (murine TAC model; daily in chow for eight weeks): nor did the ejection fraction change occur by unloading the heart (i.e., lowering blood pressure) or increasing the heart rate
CC[C@H]1CN(Cc2cc([C@H](CC(=O)O)c3ccc4c(nnn4C)c3C)ccc2C)Cc2nc(O)ccc2O1 [Example 12, (S)-3-(1,4-dimethyl-1H-benzo[d][1,2,3]triazol-5-yl)-3-(3-(((S)-2-ethyl-7-hydroxy-2,3-dihydropyrido[2,3-f][1,4]oxazepin-4(5H)-yl)methyl)-4-methylphenyl)propanoic acid]	1000 to 10000 nM	–
CC[C@]1(C)CN(Cc2cc([C@@H](CC(=O)O)c3ccc4c(nnn4C)c3C)ccc2C)Cc2nc(O)ccc2O1 [Example 26, (R)-3-(1,4-dimethyl-1H-benzo[d][1,2,3]triazol-5-yl)-3-(3-(((R)-2-ethyl-7-hydroxy-2-methyl-2,3-dihydropyrido[2,3-f][1,4]oxazepin-4(5H)-yl)methyl)-4-methylphenyl)propanonic acid]	100 to 1000 nM	–
Cc1ccc([C@@H](c2ccc3c(nnn3C)c2C)C(C)(C)C(=O)O)cc1CN1CCOc2ccc(O)nc2C1 [Example 24, (S)-3-(1,4-dimethyl-1H-benzo[d][1,2,3]triazol-5-yl)-3-(3-((7-hydroxy-2,3-dihydropyrido[2,3-f][1,4]oxazepin-4(5H)-yl)methyl)-4-methylphenyl)-2,2-dimethylpropanoic acid]	10 to 100 nM	–
Cc1ccc([C@H](CC(=O)O)c2ccc3c(nnn3C)c2C)cc1CN1Cc2nc(O)ccc2OC(C)(C)C1 [Example 11, (S)-3-(1,4-dimethyl-1H-benzo[d][1,2,3]triazol-5-yl)-3-(3-((7-hydroxy-2,2-dimethyl-2,3-dihydropyrido[2,3-f][1,4]oxazepin-4(5H)-yl)methyl)-4-methylphenyl)propanoic acid]	100 to 1000 nM	–
Cc1ccc([C@@H](CC(=O)O)c2ccc3c(nnn3C)c2C)cc1CN1Cc2nc(O)ccc2O[C@@H](C(F)(F)F)C1 [Example 20, (R)-3-(1,4-dimethyl-1H-benzo[d][1,2,3]triazol-5-yl)-3-(3-(((R)-7-hydroxy-2-(trifluoromethyl)-2,3-dihydropyrido[2,3-f][1,4]oxazepin-4(5H)-yl)methyl)-4-methylphenyl)propanoic acid]	1000 to 10000 nM	–
Cc1ccc([C@@H](CC(=O)O)c2ccc3c(nnn3C)c2C)cc1CN1Cc2nc(O)ccc2O[C@H](C(C)C)C1 [Example 3, (R)-3-(1,4-dimethyl-1H-benzo[d][1,2,3]triazol-5-yl)-3-(3-(((R)-7-hydroxy-2-isopropyl-2,3-dihydropyrido[2,3-f][1,4]oxazepin-4(5H)-yl)methyl)-4-methylphenyl)propanoic acid]	1 to 10 nM	–
Cc1ccc([C@@H](c2ccc3c(nnn3C)c2C)C(C)(C)C(=O)O)cc1CN1Cc2nc(O)ccc2O[C@H](C(C)C)C1 [Example 15, (S)-3-(1,4-dimethyl-1H-benzo[d][1,2,3]triazol-5-yl)-3-(3-(((R)-7-hydroxy-2-isopropyl-2,3-dihydropyrido[2,3-f][1,4]oxazepin-4(5H)-yl)methyl)-4-methylphenyl)-2,2-dimethylpropanoic acid]	< 1 nM	–
CC[C@@H]1CN(Cc2cc([C@H](CC(=O)O)c3ccc4c(nnn4C)c3C)ccc2C)Cc2nc(O)ccc2O1 [Example 10, (S)-3-(1,4-dimethyl-1H-benzo[d][1,2,3]triazol-5-yl)-3-(3-(((R)-2-ethyl-7-hydroxy-2,3-dihydropyrido[2,3-f][1,4]oxazepin-4(5H)-yl)methyl)-4-methylphenyl)propanoic acid]	10 to 100 nM	–
